Test results reported in publication PMC4633474, “Kinetic properties and stability of glucose dehydrogenase from Bacillus amyloliquefaciens SB5 and its potential for cofactor regeneration” (AMB Express, 2015).

Target: T1, GluDH-BS (Bacillus subtilis, UniProt P12310)
T1 construct: gene gdh; full length, plasmid pHGBS, overexpressed in B. subtilis 168 (strain BS), crude cell-free extract
Experiment: NADPH formation at […] nm, crude extract
Type: biochemical
Settings: glucose, CPB buffer, 37 °C; turnover only

T1 sequence (P12310 whole entry): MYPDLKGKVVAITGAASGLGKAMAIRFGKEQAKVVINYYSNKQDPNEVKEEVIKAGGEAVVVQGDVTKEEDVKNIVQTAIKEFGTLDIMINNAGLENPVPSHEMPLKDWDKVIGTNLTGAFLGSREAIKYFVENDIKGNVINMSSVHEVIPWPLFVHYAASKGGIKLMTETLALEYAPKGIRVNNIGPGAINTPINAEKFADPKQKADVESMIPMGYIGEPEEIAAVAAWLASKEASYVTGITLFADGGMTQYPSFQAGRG

SMILES: NC(=O)c1ccc[n+]([C@@H]2O[C@H](COP(=O)(O)OP(=O)(O)OC[C@H]3O[C@@H](n4cnc5c(N)ncnc54)[C@H](OP(=O)(O)O)[C@@H]3O)[C@@H](O)[C@H]2O)c1 [NADP^+]
- NADPH formation at 340 nm, crude extract: crude GluDH-BS (closed circle) and GluDH-BA (open circle) when using NADP^+ as a cofactor
